The values below come from US20070073039A1, “Peptides that inhibit viral infections” (priority 2005, published 2007).

No end group written: not given here.

Data set [1] has as its system HCV. Briefly: HCV focus reduction assay. The following applies: for Inhibition of HCV infection: cell culture model of HCV infection; for Fold Inhibition: inhibition of HCV infection; for Fold Inhibition / % of Mock: peptide approximately 20 μM, Huh-7.5.1 cells, 3 days; for % of Mock: number of HCV foci as % of mock (0.5% DMSO); for Fold inhibition of HCV infection: peptide library screen, approximately 20 μM; for Focus Reduction (72 h): working concentration 18.4-27.5 μM per peptide, Mock 51. The class given is cell-based, Hepatitis C virus (JFH-1). The protocol:
To identify peptides that display antiviral activity against HCV infection, the peptide library was screened by an HCV focus reduction assay. The peptides were constituted in 100% DMSO at a final concentration 10 mg/mL, and stored in −20° C. The peptide stock solution was diluted 1:200 to a final concentration approximately 20 μM in complete DMEM growth medium containing 50 focus forming units (ffu) of HCV. The virus-peptide mixture was transferred to Huh-7.5.1 cells at a density of 8000 cells per well in a 96-well plate. After adsorption for 4 hours at 37° C., the inoculum was removed. The cells were washed 2 times, overlaid with 120 μL fresh growth medium and incubated at 37° C. After 3 days of culture, the cells were fixed with paraformaldehyde and immunostained with antibody against HCV nonstructural protein NS5A. The numbers of HCV foci were counted under fluorescent microscopy and the result is expressed as percentage (%) of mock with no peptide treatment but containing solvent 0.5% DMSO.
To determine whether the antiviral activity of peptide 1 is dependent on its primary amino acid sequence, four derivative peptides from peptide 1 were synthesized to a purity >95%. The four derivatives having the same composition of amino acids included (1) the reversed the sequence of peptide 1 (also called retro-peptide); (2) scrambled hydrophobic amino acids; (3) scrambled hydrophilic amino acids; and (4) a derivative in which the aspartic acid residues (D) were replaced with proline residues (P). The antiviral activity of the peptides was examined by HCV focus reduction assay at three peptide concentrations: 18 μM, 6 μM and 2 μM, as described above.

The subject of data set [2] is HCV. Briefly: Intracellular HCV RNA by real time RT-QPCR after infection of Huh-7.5.1 cells with and without peptide. The class given is cell-based, Hepatitis C virus (JFH-1). To be noted: for HCV RNA fold inhibition 24 h 25 μM / HCV RNA fold inhibition 72 h 25 μM: Huh-7.5.1 cells, MOI 0.1, normalized to GAPDH; for Fold Inhibition on HCV RNA (24 h) / Fold Inhibition on HCV RNA (72 h): working concentration 18.4-27.5 μM per peptide. As to the method: To accurately quantify the inhibitory effect of the selected peptides on HCV infection, intracellular HCV RNA was measured after infection by real time RT-QPCR with and without peptide treatment. The peptide stock solution was diluted 1:100 and mixed with equal volume of viral supernatant (propagated from day 18 virus preparation post transfection) to a final concentration approximately 20 μM. The virus with peptide or 0.5% DMSO solvent control was then used to infect Huh-7.5.1 cells at a multiplicity of infection (MOI) of 0.1. After an adsorption for 4 hours at 37° C., the inoculum was removed. The cells were washed 2 times, overlaid with 120 μL fresh growth medium and incubated at 37° C. At the indicated time points, total cellular RNA was isolated by the guanidine thiocyanate method. The HCV RNA transcript level was measured by real time RT-QPCR with the primers 5′—
normalized to cellular GAPDH levels.
To define the antiviral action of peptide #1 (SEQ ID NO:43), the antiviral activity of a series of N-terminal and C-terminal truncations of peptide 1 was analyzed using the focus reduction assay and by measuring the reduction in intracellular HCV RNA as described.

The next data set has as its system Dengue-2. Nature of the data set: Dengue-2 infection of Vero cells, Intracellular FACS Assay. Type of data set: cell-based. To be noted: 20 μM, Vero cells 3 days post-infection; for % of Dead cells PI: propidium iodide staining. As to the method: Intracellular FACS Assay: Vero cells were seeded for 24 h pre-infection in 6-well plates. Cells were exposed to Dengue-2 in the presence of increasing concentrations of peptide (or DMSO as control). Viruses and peptide were washed away 2 h post-infection. Cells were taken for intracellular staining 3 days post-infection. Cells were stained with appropriate isotype control, Dengue Env, Dengue capsid or tubulin antibodies. Cells were analyzed by FACS.

Data set [3] can be described thus: Preliminary in vivo toxicity in mice. The protocol: As a preliminary measurement of the in vivo cytotoxicity of the peptides 1, 2 and 3 (see Table 4) a group of three mice (BALB/c mice, 7 weeks old, about 23 g) were each injected with 92 μg L-type peptide 1 ( ˜4 mg/kg) in 200 μL PBS (spun 14,000 rpm for 3 minutes before injection). In the control group, each of three mice was given 200 μL PBS containing 5% DMSO. The mice were monitored for acute toxicity during the first 3 hours after injection.
No change in appearance, activity or behavior was observed. The mice were then weighed on days 0, 3, 5, 7 and 10. Peptide-injected mice gained weight at the same rate as the controls.

With ATQTFLATCINGVCWTVY [Peptide 12], in the data set on HCV [1], the “Inhibition of HCV infection” value is “strongly inhibit HCV infection”, the “Fold Inhibition” value amounted to 42.0 fold, the “% of Mock” value amounted to 2.4% and the “Fold inhibition of HCV infection” value was “more than ten-fold”. Besides, in the data set on HCV [2], the “HCV RNA fold inhibition 24 h 25 μM” value was 8 fold and the “HCV RNA fold inhibition 72 h 25 μM” value amounted to 5 fold.
Take SWLRDIWDWICEV [^C-13mer]: in the data set on Dengue-2, the “% of Dead cells PI” value turned out to be 3.04%.
With DWICEVLSDFKTWLKAKL [Peptide 13], in the data set with HCV [1], the “Inhibition of HCV infection” value is listed as “strongly inhibit HCV infection”, the “Fold Inhibition” value is recorded as 42.0 fold, the “% of Mock” value amounted to 2.4% and the “Fold inhibition of HCV infection” value is listed as “more than ten-fold”. In addition, in the data set on HCV [2], the “HCV RNA fold inhibition 24 h 25 μM” value amounted to 7 fold and the “HCV RNA fold inhibition 72 h 25 μM” value came to 2 fold.
SWLRDIWD [^C-8mer]: the “Focus Reduction (72 h)” value in the data set on HCV [1] is reported as 58. In the data set with HCV [2], the “Fold Inhibition on HCV RNA (24 h)” value came out at 1.3 fold and the “Fold Inhibition on HCV RNA (72 h)” value was 1.0 fold.
Regarding GSATLCSALYVGDLCGSV [Peptide 5], in the data set with HCV [1], the “Inhibition of HCV infection” value is “strongly inhibit HCV infection”, the “Fold Inhibition” value stood at 100.0 fold, the “% of Mock” value is 1.0% and the “Fold inhibition of HCV infection” value was “more than ten-fold”. Further, in the data set on HCV [2], the “HCV RNA fold inhibition 24 h 25 μM” value is 26 fold and the “HCV RNA fold inhibition 72 h 25 μM” value came out at 27 fold.
As to DIWDWICEVLSDFK [^N-14mer], the “% of Dead cells PI” value in the data set on Dengue-2 is on record as 0.76%.
Consider SWLRDIWDWICE [^C-12mer], for which, in the data set with HCV [1], the “Focus Reduction (72 h)” value was found to be 107. Also, in the data set on HCV [2], the “Fold Inhibition on HCV RNA (24 h)” value was 0.8 fold and the “Fold Inhibition on HCV RNA (72 h)” value stood at 0.5 fold.
On to ALYVGDLCGSVFLVGQLF [Peptide 7], for which, in the data set on HCV [1], the “Inhibition of HCV infection” value is “strongly inhibit HCV infection”, the “Fold Inhibition” value is reported as 100.0 fold, the “% of Mock” value is 1.0% and the “Fold inhibition of HCV infection” value was “more than ten-fold”. In addition, in the data set with HCV [2], the “HCV RNA fold inhibition 24 h 25 μM” value was 20 fold and the “HCV RNA fold inhibition 72 h 25 μM” value stood at 11 fold.
SWLRDIWDWI [^C-10mer]: the “Focus Reduction (72 h)” value with HCV [1] is reported as 65. Also, in the data set with HCV [2], the “Fold Inhibition on HCV RNA (24 h)” value turned out to be 0.8 fold and the “Fold Inhibition on HCV RNA (72 h)” value is recorded as 0.6 fold. The “% GATED, Dengue α-Capsid (9A7)” value with Dengue-2 (DMSO 41.26) is on record as 37.21%. In addition, in the data set with Dengue-2, the “% of Dead cells PI” value came out at 1.2%.
For the compound WMMLLISQAEAALENLVI [Peptide 4], in the data set with HCV [1], the “Inhibition of HCV infection” value is listed as “strongly inhibit HCV infection”, the “Fold Inhibition” value was 21.0 fold, the “% of Mock” value came out at 4.8% and the “Fold inhibition of HCV infection” value is “more than ten-fold”. In addition, in the data set with HCV [2], the “HCV RNA fold inhibition 24 h 25 μM” value amounted to 27 fold and the “HCV RNA fold inhibition 72 h 25 μM” value is 40 fold.
On to IFLLALLSCLTVPASAYQ [Peptide 8], for which, in the data set with HCV [1], the “Inhibition of HCV infection” value is reported as “strongly inhibit HCV infection”, the “Fold Inhibition” value is on record as 42.0 fold, the “% of Mock” value worked out at 2.4% and the “Fold inhibition of HCV infection” value is listed as “more than ten-fold”. In addition, in the data set on HCV [2], the “HCV RNA fold inhibition 24 h 25 μM” value came to 18 fold and the “HCV RNA fold inhibition 72 h 25 μM” value turned out to be 7 fold.
As for IMDMIAGAHWGVLAGIAY [Peptide 9], in the data set on HCV [1], the “Inhibition of HCV infection” value was “strongly inhibit HCV infection”, the “Fold Inhibition” value came out at 42.0 fold, the “% of Mock” value stood at 2.4% and the “Fold inhibition of HCV infection” value was “more than ten-fold”. Besides, in the data set on HCV [2], the “HCV RNA fold inhibition 24 h 25 μM” value is given as 10 fold and the “HCV RNA fold inhibition 72 h 25 μM” value is 22 fold.
Consider WICEVLSDFK [^N-10mer], for which the “Focus Reduction (72 h)” value with HCV [1] is 45. Also, in the data set on HCV [2], the “Fold Inhibition on HCV RNA (24 h)” value is recorded as 1.1 fold and the “Fold Inhibition on HCV RNA (72 h)” value was 1.0 fold.
For TLVFDITKLLLAIFGPLW [Peptide 6], in the data set on HCV [1], the “Inhibition of HCV infection” value was “strongly inhibit HCV infection”, the “Fold Inhibition” value was 100.0 fold, the “% of Mock” value is reported as 1.0% and the “Fold inhibition of HCV infection” value was “more than ten-fold”. Besides, in the data set on HCV [2], the “HCV RNA fold inhibition 24 h 25 μM” value is reported as 24 fold and the “HCV RNA fold inhibition 72 h 25 μM” value was 16 fold.
Consider YLYGVGSSIASWAIKWEY [Peptide 11], for which, in the data set on HCV [1], the “Inhibition of HCV infection” value was “strongly inhibit HCV infection”, the “Fold Inhibition” value worked out at 42.0 fold, the “% of Mock” value came out at 2.4% and the “Fold inhibition of HCV infection” value is reported as “more than ten-fold”. Further, in the data set with HCV [2], the “HCV RNA fold inhibition 24 h 25 μM” value was 9 fold and the “HCV RNA fold inhibition 72 h 25 μM” value was found to be 7 fold.
As to WDWICEVLSDFK [^N-12mer], the “Focus Reduction (72 h)” value in the data set with HCV [1] is 38. Further, in the data set on HCV [2], the “Fold Inhibition on HCV RNA (24 h)” value is given as 2.2 fold and the “Fold Inhibition on HCV RNA (72 h)” value turned out to be 1.4 fold.
As for CEVLSDFK [^N-8mer], the “Focus Reduction (72 h)” value in the data set on HCV [1] came to 53. In addition, in the data set with HCV [2], the “Fold Inhibition on HCV RNA (24 h)” value stood at 1.1 fold and the “Fold Inhibition on HCV RNA (72 h)” value was 0.7 fold.
As for `CSCC[C@H](NC(=O)[C@H](CO)NC(=O)[C@H](CS)NC(=O)[C@H](CS)NC(=O)[C@@H](NC(=O)[C@@H](NC(=O)[C@H](CC(=O)O)NC(=O)[C@H](CCC(=O)O)NC(=O)[C@@H](NC(=O)[C@H](CC(=O)O)NC(=O)[C@H](C)NC(=O)CNC(=O)[C@H](CO)NC(=O)[C@@H](N)CO)[C@@H](C)O)C(C)C)C(C)C)C(=O)N[C@@H](CO)C(=O)N[C@@H](Cc1ccc(O)cc1)C(=O)N[C@@H](CO)C(=O)N[C@@H](Cc1c[nH]c2ccccc12)C(=O)O` [Peptide 3], the “In vivo toxicity observation” value in data set [3] (92 μg ( ˜4 mg/kg) in 200 μL PBS, acute toxicity first 3 hours, weight to day 10) is “Peptides 1, 2 and 3 are Nontoxic in C57BL/6 Mice”. Besides, in data set [3] (day 0, ˜4 mg/kg injected), the “Weight(g) (d.0)” value amounted to 24.1 g. In addition, in data set [3] (day 3), the “Weight(g) (d.3)” value was found to be 24.1 g. In data set [3] (day 5), the “Weight(g) (d.5)” value came out at 24.7 g. Moreover, in data set [3] (day 7), the “Weight(g) (d.7)” value worked out at 24.7 g. The “Weight(g) (d.10)” value in data set [3] (day 10) came to 24.7 g.
Take SWLRDIWDWICEVLSD [^C-16mer]: the “Focus Reduction (72 h)” value in the data set on HCV [1] is listed as 0. Besides, in the data set on HCV [2], the “Fold Inhibition on HCV RNA (24 h)” value was 9852.6 fold and the “Fold Inhibition on HCV RNA (72 h)” value stood at 234207.1 fold.
In the case of LYGNEGCGWAGWLLSPRG [Peptide 10], in the data set with Dengue-2, the “% of Dead cells PI” value is recorded as 4.05%.
